Results as given in patent US20030055077A1, “Method and compositions for the treatment of allergic conditions using pgd2 receptor antagonists” (priority 2002, published 2003).

Tested on: ovalbumin-sensitized guinea pigs
Assay: Guinea pig allergic rhinitis model: intranasal pressure after nasal ovalbumin challenge
Assay type: in vivo
Details: single administration, 60 minutes prior to ovalbumin 1% challenge, AUC 0-30 min
Method: Male Hartley guinea pigs (250-500 g) purchased from Charles River (St-Constant, Qc, Canada) were used. They were housed in a temperature and humidity controlled environment, in groups of four or five with food and water available ad libitum. Experimental procedures were approved by the Animal Care Committee at Merck Frosst Centre for Therapeutic Research, in accordance with the guidelines of the Canadian Council on Animal Care.
Sensitization: The animals were injected intrapeRitoneally with 0.5 ml of an ovalbumin solution (100 μg/ml) containing 100 mg/ml aluminum hydroxide in 0.9% saline. […]
Following the surgical preparation, gallamine (2 mg/kg, i.v.) was administered to suppress spontaneous breathing. […] The changes in the intranasal pressure were monitored through a pressure transducer (Validyne DP-45, membrane 6-26, Validyne Corp., Northridge, Calif.) connected to a side arm of the nasal cannula. Values were recorded every 5 seconds using a data acquisition system (Modular Instruments, Malvern, Pa.). […] The changes in intranasal pressure were recorded for 30 minutes following the nasal challenge, using the peak response.
The effects of test compounds were evaluated on the increased intranasal pressure following a nasal challenge with an aerosol of ovalbumin 1% for 3 minutes. […]

COc1ccc(CN(CCN(C)C)c2ccccn2)cc1 [mepyramine]
effect on the increase in intranasal pressure produced by aerosol of ovalbumin (5 mg/kg i.p.): no significant effect

C[S@+]([O-])c1cccc2c3c(n(Cc4ccc(Cl)cc4)c12)[C@@H](CC(=O)O)CCC3 [Compound I, 2-[(1R)-9-(4-chlorobenzyl)-8-((S)-methylsulfinyl)-2,3,4,9-tetrahydro-1H-carbazol-1-yl]acetic acid]
effect on the increase in intranasal pressure produced by aerosol of ovalbumin (1 mg/kg i.p.): no significant effect
